{"source": "ChEMBL document CHEMBL5532675", "about": "“Discovery of 4-Ethoxy-6-chloro-5-azaindazoles as Novel PDE4 Inhibitors for the Treatment of Alcohol Use Disorder and Alcoholic Liver Diseases” (J Med Chem, 2024)", "key": {"[1]": {"assay": "Toxicity in ketamine/xylazine-induced anesthetic C57BL/6J mouse model assessed as emetogenic potential by measuring reduction in anesthesia duration at 1 to 5 mg/kg, po preadministered with compound for 15 mins followed by ketamine/xylazine administration", "assay_type": "organism-based", "details": "in vivo, 0.25 h, dose 1-5 mg/kg"}, "[2]": {"target": "cGMP-inhibited 3',5'-cyclic phosphodiesterase 3B (Homo sapiens) (UniProt Q13370)", "sequence (Q13370 whole entry, looked up)": "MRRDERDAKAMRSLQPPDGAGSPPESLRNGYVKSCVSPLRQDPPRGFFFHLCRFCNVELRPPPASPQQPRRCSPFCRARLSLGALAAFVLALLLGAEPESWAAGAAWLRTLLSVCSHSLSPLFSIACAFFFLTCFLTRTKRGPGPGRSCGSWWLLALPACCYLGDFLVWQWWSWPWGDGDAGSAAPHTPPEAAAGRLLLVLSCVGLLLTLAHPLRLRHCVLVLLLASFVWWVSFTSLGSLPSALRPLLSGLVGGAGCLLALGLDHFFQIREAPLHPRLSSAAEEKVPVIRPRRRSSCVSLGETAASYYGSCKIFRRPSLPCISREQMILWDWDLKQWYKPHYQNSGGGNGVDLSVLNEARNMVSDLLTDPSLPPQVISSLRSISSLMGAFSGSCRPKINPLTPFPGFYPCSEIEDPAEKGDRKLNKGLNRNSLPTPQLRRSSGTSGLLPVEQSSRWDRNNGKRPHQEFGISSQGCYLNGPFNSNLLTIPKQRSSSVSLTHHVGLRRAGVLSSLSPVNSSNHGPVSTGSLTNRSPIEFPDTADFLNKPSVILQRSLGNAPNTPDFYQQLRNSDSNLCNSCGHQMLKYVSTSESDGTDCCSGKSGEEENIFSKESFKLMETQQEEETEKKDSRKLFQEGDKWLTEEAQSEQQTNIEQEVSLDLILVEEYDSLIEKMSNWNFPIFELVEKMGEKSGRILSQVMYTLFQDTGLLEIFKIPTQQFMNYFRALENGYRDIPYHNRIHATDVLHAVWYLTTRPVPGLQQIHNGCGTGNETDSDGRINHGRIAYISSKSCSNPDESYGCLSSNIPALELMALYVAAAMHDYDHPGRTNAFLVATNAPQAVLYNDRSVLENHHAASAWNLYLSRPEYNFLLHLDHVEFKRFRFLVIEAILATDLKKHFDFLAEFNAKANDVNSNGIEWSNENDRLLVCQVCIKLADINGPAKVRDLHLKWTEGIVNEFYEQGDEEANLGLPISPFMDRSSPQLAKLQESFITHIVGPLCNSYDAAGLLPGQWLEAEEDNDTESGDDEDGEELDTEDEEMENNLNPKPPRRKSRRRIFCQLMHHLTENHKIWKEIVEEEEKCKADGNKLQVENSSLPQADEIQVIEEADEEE", "assay": "Inhibition of PDE3B (unknown origin) using FAM-cyclic-3',5'-AMP as substrate at 10 uM incubated for 1 hrs by fluorescence polarization based IMAP assay relative to control"}, "[3]": {"assay": "AUC (0 to infinity) in Sprague-Dawley rat at 2 mg/kg, iv measured after 24 hrs by LC-MS analysis", "assay_type": "ADME, organism-based", "details": "in vivo"}, "[4]": {"target": "High affinity 3',5'-cyclic-AMP phosphodiesterase 7A (Homo sapiens) (UniProt Q13946)", "sequence (Q13946 whole entry)": "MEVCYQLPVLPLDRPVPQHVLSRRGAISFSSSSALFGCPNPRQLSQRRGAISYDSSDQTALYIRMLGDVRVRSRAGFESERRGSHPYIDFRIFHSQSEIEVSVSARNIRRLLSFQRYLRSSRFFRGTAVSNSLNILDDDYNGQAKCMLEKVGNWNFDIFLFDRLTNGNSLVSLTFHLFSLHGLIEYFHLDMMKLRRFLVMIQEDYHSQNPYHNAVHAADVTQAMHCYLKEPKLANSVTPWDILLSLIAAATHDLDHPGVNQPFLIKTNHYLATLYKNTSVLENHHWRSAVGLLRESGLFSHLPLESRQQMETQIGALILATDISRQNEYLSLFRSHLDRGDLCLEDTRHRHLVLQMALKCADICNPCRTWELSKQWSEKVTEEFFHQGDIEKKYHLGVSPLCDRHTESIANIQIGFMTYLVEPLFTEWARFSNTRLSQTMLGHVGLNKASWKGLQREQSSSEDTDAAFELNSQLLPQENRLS", "assay": "Inhibition of PDE7A (unknown origin) using FAM-cyclic-3',5'-AMP as substrate at 10 uM incubated for 1 hrs by fluorescence polarization based IMAP assay relative to control"}, "[5]": {"assay": "Selectivity ratio for inhibition of PDE8A1 (unknown origin) using FAM-cyclic-3',5'-AMP as substrate to inhibition of PDE4D7 (unknown origin) using FAM-cyclic-3',5'-AMP as substrate"}, "[6]": {"system": "Mus musculus", "assay": "(§1) Protection against alcoholic liver disease in NIAAA C57BL/6J mouse model assessed as improvement of liver injury at 1 to 2.5 mg/kg, po preadministered with 1 to 4 % of alcohol for 10 days with subsequent compound addition from day 6 to 11 and further administered with 31.25 % alcohol on day 11 and measured after 9 hrs by H&E staining based light microscopic analysis", "assay_type": "functional, organism-based", "details": "dose 1-2.5 mg/kg, time 5.0 day"}, "[7]": {"assay": "Volume of distribution at steady state in Sprague-Dawley rat at 2 mg/kg, iv measured after 24 hrs by LC-MS analysis", "assay_type": "ADME, organism-based", "details": "in vivo, read-out: Vdss"}, "[8]": {"assay": "Half-life in Sprague-Dawley rat at 2 mg/kg, iv measured after 24 hrs by LC-MS analysis", "assay_type": "ADME, organism-based", "details": "in vivo"}, "[9]": {"system": "Mus musculus", "assay": "as §1, with “reduction in serum IL-6 level” for “improvement of liver injury”, “ELISA” for “H&E staining based light microscopic analysis”", "assay_type": "functional, organism-based", "details": "dose 1-2.5 mg/kg, time 5.0 day"}, "[10]": {"system": "Mus musculus", "assay": "as §1, with “decrease in serum AST level” for “improvement of liver injury”, “absorbance” for “H&E staining”, “plate analyzer” for “light microscopic analysis”", "assay_type": "functional, organism-based", "details": "dose 1-2.5 mg/kg, time 5.0 day"}, "[11]": {"system": "Mus musculus", "assay": "(§2) Protection against alcohol use disorder in C57BL/6J mouse model assessed as decrease in alcohol intake at 1 to 2.5 mg/kg, po pre-trained with alcohol and water for 42 days with subsequent compound addition from day 22 to day 42 followed by 3.5 hrs of darkness and compound administration for 30 mins followed by water replacement with alcohol for 4 hrs on day 46 by Drink-in-Dark test", "assay_type": "functional, organism-based", "details": "dose 1-2.5 mg/kg, time 23.0 day"}, "[12]": {"assay": "AUC (0 to t) in Sprague-Dawley rat at 2 mg/kg, iv measured after 24 hrs by LC-MS analysis", "assay_type": "ADME, organism-based", "details": "in vivo"}, "[13]": {"system": "Mus musculus", "assay": "as §1, with “decrease in” for “improvement of”, “index” for “injury”, “at” for “at 1 to”, “hrs” for “hrs by H&E staining based light microscopic analysis”", "assay_type": "functional, organism-based", "details": "time 5.0 day"}, "[14]": {"system": "Mus musculus", "assay": "as §2, with “exposure-induced anxiety like behavior” for “use disorder”, “increase” for “decrease”, “center time” for “alcohol intake”, “and measured 24 hrs after alcohol withdrawal” for “on day 46”, “open field” for “Drink-in-Dark”", "assay_type": "functional, organism-based", "details": "dose 1-2.5 mg/kg, time 24.0 day"}, "[15]": {"system": "Mus musculus", "assay": "Protection against alcohol use disorder in C57BL/6J mouse model assessed as decrease in alcohol preference at 1 to 2.5 mg/kg, po pre-trained with alcohol and water for 42 days with subsequent compound addition on day 22 and measured after 3 weeks by two-bottle choice test", "assay_type": "functional, organism-based", "details": "dose 1-2.5 mg/kg"}, "[16]": {"system": "Mus musculus", "assay": "as §1, with “reduction in serum IL1-beta level” for “improvement of liver injury”, “ELISA” for “H&E staining based light microscopic analysis”", "assay_type": "functional, organism-based", "details": "dose 1-2.5 mg/kg, time 5.0 day"}, "[17]": {"system": "Mus musculus", "assay": "Protection against alcohol-induced motor impairment in C57BL/6J mouse model assessed as decrease in resting time at 1 to 2.5 mg/kg, po preadministered with compound every 24 hrs for 3 times followed by alcohol administration 30 mins post last dose and further treated with compound for 3 days followed by alcohol administration 30 mins post last dose and measured at 2 to 20 mins by open field test", "assay_type": "functional, organism-based", "details": "dose 1-2.5 mg/kg, time 8702-8720 min"}, "[18]": {"system": "Mus musculus", "assay": "Protection against alcohol use disorder in C57BL/6J mouse model assessed as decrease in alcohol intake at 1 to 2.5 mg/kg, po pre-trained with alcohol and water for 42 days with subsequent compound addition on day 22 and measured after 3 weeks by two-bottle choice test", "assay_type": "functional, organism-based", "details": "dose 1-2.5 mg/kg"}, "[19]": {"assay": "Selectivity ratio for inhibition of PDE3B (unknown origin) using FAM-cyclic-3',5'-AMP as substrate to inhibition of PDE4B1 (unknown origin) using FAM-cyclic-3',5'-AMP as substrate"}, "[20]": {"assay": "Selectivity ratio for inhibition of PDE9A (unknown origin) using FAM-cyclic-3',5'-AMP as substrate to inhibition of PDE4D7 (unknown origin) using FAM-cyclic-3',5'-AMP as substrate"}, "[21]": {"system": "SH-SY5Y", "assay": "Protection against alcohol-induced cytotoxicity in human SH-SY5Y cells assessed as increase in cell viability at 0.25 to 1 uM preincubated with compound for 1 hrs followed by ethanol administration and measured after 24 hrs by CCK8 assay", "assay_type": "functional, cell-based", "details": "dose 0.25-1 µM, time 25.0 hrs"}, "[22]": {"system": "Mus musculus", "assay": "as §2, with “exposure-induced anxiety like behavior” for “use disorder”, “distance travelled” for “decrease in alcohol intake”, “and measured 24 hrs after alcohol withdrawal” for “on day 46”, “open field” for “Drink-in-Dark”", "assay_type": "functional, organism-based", "details": "dose 1-2.5 mg/kg, time 24.0 day"}, "[23]": {"system": "Mus musculus", "assay": "Protection against alcohol-induced sedation in C57BL/6J mouse model assessed as reduction in sleep time at 1 to 2.5 mg/kg, po preadministered with compound every 24 hrs for 3 times followed by alcohol administration 30 mins post last dose", "assay_type": "functional, organism-based", "details": "dose 1-2.5 mg/kg, time 72.5 hrs"}, "[24]": {"assay": "AUC (0 to t) in Sprague-Dawley rat at 10 mg/kg, po measured after 24 hrs by LC-MS analysis", "assay_type": "ADME, organism-based", "details": "in vivo"}, "[25]": {"assay": "Selectivity ratio for inhibition of PDE7A (unknown origin) using FAM-cyclic-3',5'-AMP as substrate to inhibition of PDE4B1 (unknown origin) using FAM-cyclic-3',5'-AMP as substrate"}, "[26]": {"assay": "Chemical stability of compound in aqueous solution at pH <6 measured after 48 hrs", "assay_type": "physicochemical", "details": "buffer"}, "[27]": {"system": "Mus musculus", "assay": "as §1, with “steatosis” for “liver injury”, “Oil Red O” for “H&E”", "assay_type": "functional, organism-based", "details": "dose 1-2.5 mg/kg, time 5.0 day"}, "[28]": {"system": "SH-SY5Y", "assay": "Cytotoxicity against human SH-SY5Y cells assessed as reduction in cell viability incubated for 48 hrs by MTT assay", "assay_type": "toxicity, cell-based"}, "[29]": {"assay": "Oral bioavailability in Sprague-Dawley rat at 10 mg/kg measured after 24 hrs by LC-MS analysis", "assay_type": "ADME, organism-based", "details": "in vivo"}, "[30]": {"assay": "Acute toxicity in C57BL/6J mouse assessed as druggability at 1 g/Kg, po administered for 14 days", "assay_type": "organism-based", "details": "in vivo, 1000 mg/kg, 336 h, time 14 day"}, "[31]": {"system": "Mus musculus", "assay": "as §1, with “reduction in” for “improvement of”, “IL-6 mRNA level” for “injury”, “RT-qPCR” for “H&E staining based light microscopic”", "assay_type": "functional, organism-based", "details": "dose 1-2.5 mg/kg, time 5.0 day"}}, "note": "Active and inactive are the calls of the source. The calls are words filed in the database; no cut-off is given here.", "data": [{"smiles": "CCOc1nc(Cl)cc2c1cnn2CCCC(=O)O", "values": [{"measurement": "Activity", "setting": "[1]", "value": "Non-Toxic"}, {"measurement": "inhibition", "setting": "[2]", "value": 10, "unit": "%"}, {"measurement": "AUC(0-inf)", "setting": "[3]", "value": 143, "unit": "µg·h/mL"}, {"measurement": "inhibition", "setting": "[4]", "value": 11, "unit": "%"}, {"measurement": "Selectivity ratio", "setting": "[5]", "value": "> 267"}, {"measurement": "Activity", "setting": "[6]", "value": "Active"}, {"measurement": "Vd", "setting": "[7]", "value": 0.0719, "unit": "L/kg"}, {"measurement": "half-life", "setting": "[8]", "value": 3.65, "unit": "h"}, {"measurement": "Activity", "setting": "[9]", "value": "Active"}, {"measurement": "Activity", "setting": "[10]", "value": "Active"}, {"measurement": "Activity", "setting": "[11]", "value": "Active"}, {"measurement": "AUC(0-t) at 24 h", "setting": "[12]", "value": 142, "unit": "µg·h/mL"}, {"measurement": "Activity", "setting": "[13]", "value": "Active"}, {"measurement": "Activity", "setting": "[14]", "value": "Active"}, {"measurement": "Activity", "setting": "[15]", "value": "Active"}, {"measurement": "Activity", "setting": "[16]", "value": "Active"}, {"measurement": "Activity", "setting": "[17]", "value": "Active"}, {"measurement": "Activity", "setting": "[18]", "value": "Active"}, {"measurement": "Selectivity ratio", "setting": "[19]", "value": "> 267"}, {"measurement": "Selectivity ratio", "setting": "[20]", "value": "> 267"}, {"measurement": "Activity", "setting": "[21]", "value": "Active"}, {"measurement": "Activity", "setting": "[22]", "value": "Active"}, {"measurement": "Activity", "setting": "[23]", "value": "Active"}, {"measurement": "AUC(0-t) at 24 h", "setting": "[24]", "value": 669, "unit": "µg·h/mL"}, {"measurement": "Selectivity ratio", "setting": "[25]", "value": "> 267"}, {"measurement": "Stability", "setting": "[26]", "value": "Stable"}, {"measurement": "Activity", "setting": "[27]", "value": "Active"}, {"measurement": "Activity", "setting": "[28]", "value": "Non-Toxic"}, {"measurement": "bioavailability", "setting": "[29]", "value": 94.1, "unit": "%"}, {"measurement": "Activity", "setting": "[30]", "value": "Non-Toxic"}, {"measurement": "Activity", "setting": "[31]", "value": "Active"}]}]}
